Patent publication US20240325398A1, “COMBINATION THERAPIES” (Infinity Pharmaceuticals, Inc., priority 2014, published 2024)

What was measured:
Test in all cases: Combination study, ATPLite 72 h, dose matrix (Synergy Score, CI50)
Jeko-1 = settings: combination with Compound 1
Mino = settings: combination with Compound 1
GRANTA-519 = settings: combination with Compound 1
OCI-Ly7 = settings: combination with Compound 1, 72 h
Protocol: (§1) Cells are thawed from a liquid nitrogen preserved state. Once cells have been expanded and divide at their expected doubling times, screening begins. Cells are seeded in growth media in either black 1536-well or 384-well tissue culture treated plates. Cells are then equilibrated in assay plates via centrifugation and placed in incubators attached to the Dosing Modules at 37° C. for 24 hours before treatment. […] These Tzero (To) plates are read using ultra-sensitive luminescence on Envision plate readers (Perkin Elmer). Treated assay plates are incubated with compound for 72 hours. After 72 hours, plates are developed for endpoint analysis using ATPLite. All data points are collected via automated processes, quality controlled and analyzed using Zalicus software.
The measure of effect in the experiment can be the inhibition of cellular response relative to the untreated level (vehicle alone). […] The inhibition ranges from 0% at the untreated level to 100% when T=0. Inhibition levels are negative for agents that actually increase levels.
(§2) Growth Inhibition (GI) is used as a measure of cell viability. […] A GI reading of 100% represents complete growth inhibition—T72 compound-treated and T0 vehicle signals are matched. […] A GI reading of 200% represents complete death of all cells in the culture well. Compounds reaching an activity plateau of GI 200% are considered cytotoxic. GI is calculated by applying the following test and equation:
(§3) Combination analysis data were collected in a 6×6 dose matrix. Synergy is calculated by comparing a combination's response to those of its single compound, against the drug-with-itself dose-additive reference model. Deviations from dose additivity may be assessed visually on an isobologram or numerically with a Combination Index (CI). […] Additive effect is CI=1.0. […] Antagonistic effect is CI>1.0.
(§4) To measure combination effects in excess of Loewe additivity, a scalar measure to characterize the strength of synergistic interaction termed the Synergy Score is devised. The Synergy Score is calculated as:
(§5) The fractional inhibition for each component agent and combination point in the matrix is calculated relative to the median of all vehicle-treated control wells. The Synergy Score equation integrates the experimentally-observed activity volume at each point in the matrix in excess of a model surface numerically derived from the activity of the component agents using the Loewe model for additivity. Additional terms in the Synergy Score equation (above) are used to normalize for various dilution factors used for individual agents and to allow for comparison of synergy scores across an entire experiment. The inclusion of positive inhibition gating or an Idata multiplier removes noise near the zero effect level, and biases results for synergistic interactions at that occur at high activity levels.
Loewe Volume (Loewe Vol) is used to assess the overall magnitude of the combination interaction in excess of the Loewe additivity model. Loewe Volume is particularly useful when distinguishing synergistic increases in a phenotypic activity (positive Loewe Volume) versus synergistic antagonisms (negative Loewe Volume). […] This model defines additivity as a non-synergistic combination interaction where the combination dose matrix surface should be indistinguishable from either drug crossed with itself. The calculation for Loewe additivity is:

SU-DHL-4-epst = settings: combination with Compound 1, 72 h
NCI-H929 = settings: combination with Compound 1
Protocol: as §1
(§6) where T is treated cell count and V is untreated (vehicle) cell count (at 72 hours). I ranges from 0% (when T=V) to 100% (when T=0). […] The measure of effect in the experiment can be the inhibition of cellular response relative to the untreated level (vehicle alone). […] The inhibition ranges from 0% at the untreated level to 100% when T=0. Inhibition levels are negative for agents that actually increase levels. Other effect measures, such as an activity ratio r=T/V may be more appropriate for some assays. When activity ratios (e.g, fold increase over stimulated control) are being used, the effect can be measured using an induction 1=ln(T/V). With this definition, all effect expressions are the same as for inhibition.
as §2, §3, §4, §5
Loewe Volume (Loewe Vol) is used to assess the overall magnitude of the combination interaction in excess of the Loewe additivity model. Loewe Volume is particularly useful when distinguishing synergistic increases in a phenotypic activity (positive Loewe Volume) versus synergistic antagonisms (negative Loewe Volume). […] This model defines additivity as a non-synergistic combination interaction where the combination dose matrix surface should be indistinguishable from either drug crossed with itself.

TMD8 = settings: TMD8
Protocol: as §1, §6, §2, §3
The isobologram was drawn by identifying the locus of concentrations that correspond to crossing the indicated inhibition level. This is done by finding the crossing point for each single agent concentration in a dose matrix across the concentrations of the other single agent. Practically, each vertical concentration CY is held fixed while a bisection algorithm is used to identify the horizontal concentration CX in combination with that vertical dose that gives the chosen effect level in the response surface Z(CX,CY). These concentrations are then connected by linear interpolation to generate the isobologram display. For synergistic interactions, the isobologram contour fall below the additivity threshold and approaches the origin, and an antagonistic interaction would lie above the additivity threshold. The error bars represent the uncertainty arising from the individual data points used to generate the isobologram. The uncertainty for each crossing point is estimated from the response errors using bisection to find the concentrations where Z−αZ(CX,CY) and Z+σZ(CX,CY) cross Icut, where αZ is the standard deviation of the residual error on the effect scale.
as §4
The fractional inhibition for each component agent and combination point in the matrix is calculated relative to the median of all vehicle-treated control wells.

RL = settings: combination with Compound 1, 72 h
U-2932 = tested on: U-2932
RPMI-8226 = settings: combination with Compound 1
HBL-1 = tested on: HBL-1
WSU-NHL = settings: combination with Compound 1, 72 h
[1] = combination with CAL-101, Example 2
[2] = combination with Cmpd 1, Example 2
[3] = combination with Compound 1, 72 h

Which results are given for `C[C@@H]1C[C@H]2[C@@H]3CCC4=CC(=O)C=C[C@]4(C)[C@@]3(F)[C@@H](O)C[C@]2(C)[C@@]1(O)C(=O)CO` [dexamethasone, (8S,9R,10S,11S,13S,14S,16R,17R)-9-Fluoro-11,17-dihydroxy-17-(2-hydroxyacetyl)-10,13,16-trimethyl-6,7,8,9,10,11,12,13,14,15,16,17-dodecahydro-3H-cyclopenta[a]phenanthren-3-one]?
CI50 growth inhibition (Jeko-1): U (U=0.7 to <1); CI50 inhibition (Jeko-1): S (S=0.01 to <0.5); Synergy Score growth inhibition (Jeko-1): A3 (A3=>3); Synergy Score inhibition (Jeko-1): A3 (A3=>3); CI50 growth inhibition (Mino): S (S=0.01 to <0.5); CI50 inhibition (Mino): S (S=0.01 to <0.5); Synergy Score growth inhibition (Mino): A3 (A3=>3); Synergy Score inhibition (Mino): A2 (A2=1 to <3); CI50 growth inhibition (GRANTA-519): S (S=0.01 to <0.5); Synergy Score growth inhibition (GRANTA-519): A3 (A3=>3); Synergy Score inhibition (GRANTA-519): A1 (A1=0.0001 to <1); CI50 growth inhibition (OCI-Ly7): S (S=0.01 to <0.5); CI50 inhibition (OCI-Ly7): S (S=0.01 to <0.5); Synergy Score growth inhibition (OCI-Ly7): A3 (A3=>3); Synergy Score inhibition (OCI-Ly7): A3 (A3=>3); CI50 growth inhibition (SU-DHL-4-epst): T (T=0.5 to <0.7); CI50 inhibition (SU-DHL-4-epst): T (T=0.5 to <0.7); Synergy Score growth inhibition (SU-DHL-4-epst): A3 (A3=>3); Synergy Score inhibition (SU-DHL-4-epst): A3 (A3=>3); CI50 growth inhibition (NCI-H929): S (S=0.01 to <0.5); CI50 inhibition (NCI-H929): U (U=0.7 to <1); Synergy Score growth inhibition (NCI-H929): A3 (A3=>3); Synergy Score inhibition (NCI-H929): A2 (A2=1 to <3); CI50 growth inhibition (TMD8; [1]): S (S=0.01 to <0.5); CI50 inhibition (TMD8; [1]): S (S=0.01 to <0.5); Synergy Score growth inhibition (TMD8; [1]): A3 (A3=>3); Synergy Score inhibition (TMD8; [1]): A3 (A3=>3); CI50 growth inhibition (TMD8; [2]): T (T=0.5 to <0.7); CI50 inhibition (TMD8; [2]): S (S=0.01 to <0.5); Synergy Score growth inhibition (TMD8; [2]): A3 (A3=>3); Synergy Score inhibition (TMD8; [2]): A3 (A3=>3); CI50 growth inhibition (TMD8; [3]): U (U=0.7 to <1); CI50 inhibition (TMD8; [3]): S (S=0.01 to <0.5); Synergy Score growth inhibition (TMD8; [3]): A3 (A3=>3); Synergy Score inhibition (TMD8; [3]): A3 (A3=>3); CI50 growth inhibition (RL): S (S=0.01 to <0.5); CI50 inhibition (RL): S (S=0.01 to <0.5); Synergy Score growth inhibition (RL): A3 (A3=>3); Synergy Score inhibition (RL): A3 (A3=>3); CI50 growth inhibition (U-2932; [1]): S (S=0.01 to <0.5); CI50 inhibition (U-2932; [1]): S (S=0.01 to <0.5); Synergy Score growth inhibition (U-2932; [1]): A2 (A2=1 to <3); Synergy Score inhibition (U-2932; [1]): A2 (A2=1 to <3); CI50 growth inhibition (U-2932; [2]): S (S=0.01 to <0.5); CI50 inhibition (U-2932; [2]): S (S=0.01 to <0.5); Synergy Score growth inhibition (U-2932; [2]): A3 (A3=>3); Synergy Score inhibition (U-2932; [2]): A2 (A2=1 to <3); CI50 growth inhibition (U-2932; [3]): S (S=0.01 to <0.5); CI50 inhibition (U-2932; [3]): S (S=0.01 to <0.5); Synergy Score growth inhibition (U-2932; [3]): A3 (A3=>3); Synergy Score inhibition (U-2932; [3]): A2 (A2=1 to <3); CI50 growth inhibition (RPMI-8226): S (S=0.01 to <0.5); CI50 inhibition (RPMI-8226): U (U=0.7 to <1); Synergy Score growth inhibition (RPMI-8226): A3 (A3=>3); Synergy Score inhibition (RPMI-8226): A2 (A2=1 to <3); CI50 growth inhibition (HBL-1; [1]): T (T=0.5 to <0.7); CI50 inhibition (HBL-1; [1]): S (S=0.01 to <0.5); Synergy Score growth inhibition (HBL-1; [1]): A2 (A2=1 to <3); Synergy Score inhibition (HBL-1; [1]): A2 (A2=1 to <3); CI50 growth inhibition (HBL-1; [2]): T (T=0.5 to <0.7); CI50 inhibition (HBL-1; [2]): U (U=0.7 to <1); Synergy Score growth inhibition (HBL-1; [2]): A2 (A2=1 to <3); Synergy Score inhibition (HBL-1; [2]): A2 (A2=1 to <3); CI50 growth inhibition (HBL-1; [3]): S (S=0.01 to <0.5); CI50 inhibition (HBL-1; [3]): U (U=0.7 to <1); Synergy Score growth inhibition (HBL-1; [3]): A3 (A3=>3); Synergy Score inhibition (HBL-1; [3]): A2 (A2=1 to <3); CI50 inhibition (WSU-NHL): T (T=0.5 to <0.7); Synergy Score growth inhibition (WSU-NHL): A3 (A3=>3); Synergy Score inhibition (WSU-NHL): A3 (A3=>3)
